Here are results for 24 compounds from patent US12534452B2, “N-(1H-imidazol-2-yl)benzamide compound and pharmaceutical composition comprising the same as active ingredient” (KAINOS MEDICINE, INC., priority 2019, dated 2026).

Bounds are passed on as bounds.

This assay concerns the target IRAK4 (Homo sapiens (Human), UniProt Q9NWZ3). Kind of assay: In vitro IRAK4 phosphorylation activity assay. Format: biochemical. The following applies: [γ-33P]-ATP, myelin basic protein substrate, 40 minutes at room temperature; categories. Put shortly: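 Radiometric filter-binding assay, no compound–kinase preincubation; 8 mM MOPS pH 7.0, 0.2 mM EDTA, 10 mM Mg acetate, 0.33 mg/mL myelin basic protein substrate, [γ-33P]-ATP. Reaction 40 min at room temperature, stopped with phosphoric acid, scintillation counting; IC50 reported in categories.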

IRAK4, sequence (Q9NWZ3 whole entry): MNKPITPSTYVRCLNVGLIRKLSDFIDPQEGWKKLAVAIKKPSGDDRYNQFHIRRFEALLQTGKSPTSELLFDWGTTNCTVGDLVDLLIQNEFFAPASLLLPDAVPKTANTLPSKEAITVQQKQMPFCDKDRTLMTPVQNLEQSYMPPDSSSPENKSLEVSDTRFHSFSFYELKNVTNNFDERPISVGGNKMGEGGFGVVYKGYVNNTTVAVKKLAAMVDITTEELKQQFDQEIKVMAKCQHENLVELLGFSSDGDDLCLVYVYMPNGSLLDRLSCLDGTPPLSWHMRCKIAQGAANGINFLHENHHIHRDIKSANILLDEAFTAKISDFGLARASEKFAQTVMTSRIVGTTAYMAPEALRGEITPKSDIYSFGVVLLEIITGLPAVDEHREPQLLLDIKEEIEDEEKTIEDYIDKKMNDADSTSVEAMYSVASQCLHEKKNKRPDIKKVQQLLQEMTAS

`CNC(=O)CCCc1cn(-c2ccc(F)cc2)c(NC(=O)c2cccc(-c3cn[nH]c3)c2)n1` [Example 297, N-(1-(4-fluorophenyl)-4-(4-(methylamino)-4-oxobutyl)-1H-imidazol-2-yl)-3-(1H-pyrazol-4-yl)benzamide] had an IC50 below 50 nM.

`O=C(Nc1nc(CCCCCC(=O)N2CCCCC2)cn1-c1ccccc1)c1cccc(-c2cn[nH]c2)c1` [Example 93, N-(4-(6-oxo-6-(piperidin-1-yl)hexyl)-1-phenyl-1H-imidazol-2-yl)-3-(1H-pyrazol-4-yl)benzamide] returned a half-maximal inhibitory concentration (IC50) below 50 nM.

The compound `O=C(Nc1nc(CCCC(=O)N2CCCCC2)cn1-c1ccccc1)c1cccc(-c2ccc3[nH]ncc3c2)c1` [Example 246, 3-(1H-indazol-5-yl)-N-(4-(4-oxo-4-(piperidin-1-yl)butyl)-1-phenyl-1H-imidazol-2-yl)benzamide] returned an IC50 below 50 nM.

Compound `O=C(O)Cc1cn(-c2ccccc2)c(NC(=O)c2cccc(-c3cn[nH]c3)c2)n1` [Example 43, 2-(2-(3-(1H-pyrazol-4-yl)benzamido)-1-phenyl-1H-imidazol-4-yl)acetic acid] gave an IC50 above 100 nM.

The compound `O=C(Nc1nc(CCCN2CCOCC2)cn1-c1ccccc1)c1cccc(-c2cn[nH]c2)c1` [Example 107, N-(4-(3-morpholinopropyl)-1-phenyl-1H-imidazol-2-yl)-3-(1H-pyrazol-4-yl)benzamide] came in with a half-maximal inhibitory concentration (IC50) below 50 nM.

Turning to `O=C(Nc1nc(CCCCCC(=O)N2CCCCC2)cn1-c1ccccc1)c1cccc(-c2ccc3[nH]ncc3c2)c1` [Example 237, 3-(1H-indazol-5-yl)-N-(4-(6-oxo-6-(piperidin-1-yl)hexyl)-1-phenyl-1H-imidazol-2-yl)benzamide], the IC50 was below 50 nM.

For the compound `O=C(CCc1cn(-c2ccccc2)c(NC(=O)c2cccc(-c3cn[nH]c3)c2)n1)Nc1ccc(F)cc1F` [Example 16, N-(4-(3-((2,4-difluorophenyl)amino)-3-oxopropyl)-1-phenyl-1H-imidazol-2-yl)-3-(1H-pyrazol-4-yl)benzamide], the IC50 was below 50 nM.

For `Cn1cc(-c2cccc(C(=O)Nc3nc(CCCC(=O)N4CCC(N5CCCC5)CC4)cn3-c3ccccc3)c2)cn1` [Example 154, 3-(1-methyl-1H-pyrazol-4-yl)-N-(4-(4-oxo-4-(4-(pyrrolidin-1-yl)piperidin-1-yl)butyl)-1-phenyl-1H-imidazol-2-yl)benzamide], the IC50 was below 50 nM.

`Cn1cc(-c2cccc(C(=O)Nc3nc(CCCC(=O)N4CCN(C5CCCCC5)CC4)cn3-c3ccccc3)c2)cn1` [Example 182, N-(4-(4-(4-cyclohexylpiperazin-1-yl)-4-oxobutyl)-1-phenyl-1H-imidazol-2-yl)-3-(1-methyl-1H-pyrazol-4-yl)benzamide] registered an IC50 below 50 nM.

Consider `O=C(Nc1nc(CCCCC(=O)N2CCCCC2)cn1-c1ccccc1)c1cccc(-c2cn[nH]c2)c1` [Example 79, N-(4-(5-oxo-5-(piperidin-1-yl)pentyl)-1-phenyl-1H-imidazol-2-yl)-3-(1H-pyrazol-4-yl)benzamide], for which the IC50 is below 50 nM.

For `O=C(O)CCCc1cn(-c2ccccc2)c(NC(=O)c2cccc(-c3cn[nH]c3)c2)n1` [Example 57, 4-(2-(3-(1H-pyrazol-4-yl)benzamido)-1-phenyl-1H-imidazol-4-yl)butanoic acid], the IC50 was below 50 nM.

Compound `COC[C@@H]1CCCN1C(=O)CCCCCc1cn(-c2ccccc2)c(NC(=O)c2cccc(-c3cn[nH]c3)c2)n1` [Example 100, (S)—N-(4-(6-(2-(methoxymethyl)pyrrolidin-1-yl)-6-oxohexyl)-1-phenyl-1H-imidazol-2-yl)-3-(1H-pyrazol-4-yl)benzamide] gave an IC50 below 50 nM.

Compound `O=C(Nc1nc(CCC(=O)N2CCOCC2)cn1-c1ccccc1)c1cccc(-c2cn[nH]c2)c1` [Example 11, N-(4-(3-morpholino-3-oxopropyl)-1-phenyl-1H-imidazol-2-yl)-3-(1H-pyrazol-4-yl)benzamide] came in with an IC50 below 50 nM.

The compound `Cn1cc(-c2cccc(C(=O)Nc3nc(CCCC(=O)NN4CCCC4)cn3-c3ccccc3)c2)cn1` [Example 151, 3-(1-methyl-1H-pyrazol-4-yl)-N-(4-(4-oxo-4-(pyrrolidin-1-ylamino)butyl)-1-phenyl-1H-imidazol-2-yl)benzamide] yielded an IC50 below 50 nM.

The compound `Cn1cc(-c2cccc(C(=O)Nc3nc(CCCC(=O)N4CCN(C(C)(C)C)CC4)cn3-c3ccccc3)c2)cn1` [Example 181, N-(4-(4-(4-(tert-butyl)piperazin-1-yl)-4-oxobutyl)-1-phenyl-1H-imidazol-2-yl)-3-(1-methyl-1H-pyrazol-4-yl)benzamide] gave an IC50 below 50 nM.

Compound `CN1CCN(C(=O)CCCCCc2cn(-c3ccccc3)c(NC(=O)c3cccc(-c4cnn(C)c4)c3)n2)CC1` [Example 201, 3-(1-methyl-1H-pyrazol-4-yl)-N-(4-(6-(4-methylpiperazin-1-yl)-6-oxohexyl)-1-phenyl-1H-imidazol-2-yl)benzamide] showed an IC50 below 50 nM.

The compound `Cn1cc(-c2cccc(C(=O)Nc3nc(CCCC(=O)N4CCCC(O)C4)cn3-c3ccccc3)c2)cn1` (stereo not drawn) [Example 178, N-(4-(4-(3-hydroxypiperidin-1-yl)-4-oxobutyl)-1-phenyl-1H-imidazol-2-yl)-3-(1-methyl-1H-pyrazol-4-yl)benzamide] gave an IC50 below 50 nM.

Compound `Cn1cc(-c2cccc(C(=O)Nc3nc(CCCCCCN4CCCCC4)cn3-c3ccccc3)c2)cn1` [Example 220, 3-(1-methyl-1H-pyrazol-4-yl)-N-(1-phenyl-4-(6-(piperidin-1-yl)hexyl)-1H-imidazol-2-yl)benzamide] registered an IC50 below 50 nM.

Compound `O=C(Nc1nc(CCO)cn1-c1ccccc1)c1cccc(-c2cn[nH]c2)c1` [Example 103, N-(4-(2-hydroxyethyl)-1-phenyl-1H-imidazol-2-yl)-3-(1H-pyrazol-4-yl)benzamide] registered an IC50 below 50 nM.

For `CNC(=O)CCCCc1cn(-c2ccccc2)c(NC(=O)c2cccc(-c3cn[nH]c3)c2)n1` [Example 80, N-(4-(5-(methylamino)-5-oxopentyl)-1-phenyl-1H-imidazol-2-yl)-3-(1H-pyrazol-4-yl)benzamide], the IC50 is below 50 nM.

Regarding `O=C(Nc1nc(CCC(=O)N2CCCC(C(=O)O)C2)cn1-c1ccccc1)c1cccc(-c2cn[nH]c2)c1` [Example 36, (S)-1-(3-(2-(3-(1H-pyrazol-4-yl)benzamido)-1-phenyl-1H-imidazol-4-yl)propanoyl)piperidine-3-carboxylic acid], the IC50 is below 50 nM.

`CCOC(C)(C)n1cc(-c2cccc(C(=O)Nc3nc(CCCC(=O)NC4CC4)cn3-c3ccccc3)c2)cn1` [Example 73, N-(4-(4-(cyclopropylamino)-4-oxobutyl)-1-phenyl-1H-imidazol-2-yl)-3-(1-(2-ethoxypropan-2-yl)-1H-pyrazol-4-yl)benzamide] returned an IC50 of 50 to 100 nM.

Turning to `O=C(CCCc1cn(-c2ccccc2)c(NC(=O)c2cccc(-c3cn[nH]c3)c2)n1)Nc1ccc(F)cc1` [Example 64, N-(4-(4-((4-fluorophenyl)amino)-4-oxobutyl)-1-phenyl-1H-imidazol-2-yl)-3-(1H-pyrazol-4-yl)benzamide], the IC50 is below 50 nM.

In turn, `Nc1ccc(-c2cccc(C(=O)Nc3nc(CCCCCCNC(=O)C4CC4)cn3-c3ccccc3)c2)cn1` [Example 278, 3-(6-aminopyridin-3-yl)-N-(4-(6-(cyclopropanecarboxamido)hexyl)-1-phenyl-1H-imidazol-2-yl)benzamide] returned an IC50 below 50 nM.
